Experimental data from patent US9663496B2, “AMPK-activating heterocyclic compounds and methods for using the same” (Rigel Pharmaceuticals, Inc., priority 2010, dated 2017).

target: AMPK; test: AMPK activation, enzyme-linked immunosorbent assay; type: biochemical; details: EC50 for AMPK activation, ELISA
Procedure: Compounds were assayed for their ability to activate AMPK using an enzyme-linked immunosorbent assay. Reagents and procedures for measuring AMPK activation are well known and kits for AMPK activation assays are commercially available.

Row | Compound | EC50 [nM]
1 | O=C(Nc1ccc(Oc2ccc(F)cc2)nc1)c1cnc(C(=O)N2CCC(C(=O)c3ccc(F)cc3F)CC2)cn1 [Compound 206, 5-(4-(2,4-difluorobenzoyl)piperidine-1-carbonyl)-N-(6-(4-fluorophenoxy)pyridin-3-yl)pyrazine-2-carboxamide] | < 500
2 | N#Cc1ccc(CN2CCC(NC(=O)c3ccc(C(=O)N4CCN(c5ccc(C(=O)C6CC6)cc5)CC4)cn3)CC2)cc1 [Compound 258, N-(1-(4-cyanobenzyl)piperidin-4-yl)-5-(4-(4-(cyclopropanecarbonyl)phenyl)piperazine-1-carbonyl)picolinamide] | < 500
3 | COc1cccc(CC2CCN(C(=O)c3ccc(C(=O)NC4CCN(Cc5ccc(C#N)cc5)CC4)nc3)CC2)c1 [Compound 147, N-(1-(4-cyanobenzyl)piperidin-4-yl)-5-(4-(3-methoxybenzyl)piperidine-1-carbonyl)picolinamide] | < 500
4 | O=C(N[C@@H]1CCN(Cc2ccc(Cl)cc2)C[C@@H]1F)c1ccc(C(=O)N2CCN(Cc3ccc(F)cc3)CC2)cn1 (relative stereo) [Compound 127, N-(cis-1-(4-chlorobenzyl)-3-fluoropiperidin-4-yl)-5-(4-(4-fluorobenzyl)piperazine-1-carbonyl)picolinamide] | < 500
5 | N#Cc1ccc(CN2CCC(NC(=O)c3ccc(C(=O)N4CCC(Oc5ccc(S(=O)(=O)C(F)(F)F)cc5)CC4)cn3)CC2)cc1 [Compound 415, N-(1-(4-cyanobenzyl)piperidin-4-yl)-5-(4-(4-(trifluoromethylsulfonyl)phenoxy)piperidine-1-carbonyl)picolinamide] | < 500
6 | O=C(NC1CCN(Cc2ccc(F)cc2)CC1)c1ccc(C(=O)N2CCC(C(=O)c3ccc(F)cc3)CC2)cn1 [Compound 181, 5-(4-(4-fluorobenzoyl)piperidine-1-carbonyl)-N-(1-(4-fluorobenzyl)piperidin-4-yl)picolinamide] | < 500
7 | N#Cc1ccc(OC2CCN(C(=O)c3ccc(C(=O)NC4CCN(Cc5nccs5)CC4)cn3)CC2)cc1 [Compound 356, 6-(4-(4-cyanophenoxy)piperidine-1-carbonyl)-N-(1-(thiazol-2-ylmethyl)piperidin-4-yl)nicotinamide] | < 500
8 | COc1ccc(CN2CCC(NC(=O)c3ccc(C(=O)N4CCC(Oc5cccc(NC(=O)C6CC6)c5)CC4)nc3)CC2)cc1 [Compound 435, 6-(4-(3-(cyclopropanecarboxamido)phenoxy)piperidine-1-carbonyl)-N-(1-(4-methoxybenzyl)piperidin-4-yl)nicotinamide] | < 500
9 | CCOC(=O)C(c1ccccc1)N1CCC(NC(=O)c2ccc(C(=O)N3CCN(Cc4ccc(F)cc4)CC3)cn2)CC1 (stereo not drawn) [Compound 98, ethyl 2-(4-(5-(4-(4-fluorobenzyl)piperazine-1-carbonyl)picolinamido)piperidin-1-yl)-2-phenylacetate] | 1000 to 5000
10 | O=C(c1ccc(C(=O)N2CCN(CCc3ccccc3)CC2)nc1)N1CCN(Cc2ccc(F)cc2)CC1 [Compound 88, (4-(4-fluorobenzyl)piperazin-1-yl)(6-(4-phenethylpiperazine-1-carbonyl)pyridin-3-yl)methanone] | 1000 to 5000
11 | O=C(NC1CCN(Cc2ccc(OC(F)(F)F)cc2)CC1)c1ccc(C(=O)N2CCC(Oc3ccc(S(F)(F)(F)(F)F)cc3)CC2)nc1 [Compound 494, 6-(4-(4-(pentafluorosulfanyl)phenoxy)piperidine-1-carbonyl)-N-(1-(4-(trifluoromethoxy)benzyl)piperidin-4-yl)nicotinamide] | < 500
12 | COc1ccc(C(=O)C2CCN(C(=O)c3ccc(C(=O)Nc4ccc(Oc5ccc(C#N)cc5)nc4C)cn3)CC2)cc1 [Compound 478, N-(6-(4-cyanophenoxy)-2-methylpyridin-3-yl)-6-(4-(4-methoxybenzoyl)piperidine-1-carbonyl)nicotinamide] | < 500
13 | COc1cccc(CN2CCC(NC(=O)c3ccc(C(=O)N4CCC(Oc5ccc(S(C)(=O)=O)cc5)CC4)nc3)CC2)c1 [Compound 238, N-(1-(3-methoxybenzyl)piperidin-4-yl)-6-(4-(4-(methylsulfonyl)phenoxy)piperidine-1-carbonyl)nicotinamide] | 1000 to 5000
14 | COc1ccc(CN2CCC(NC(=O)c3ccc(C(=O)N4CCC(Oc5cccc(NC(C)=O)c5)CC4)nc3)CC2)cc1 [Compound 412, 6-(4-(3-acetamidophenoxy)piperidine-1-carbonyl)-N-(1-(4-methoxybenzyl)piperidin-4-yl)nicotinamide] | 1000 to 5000
15 | N#Cc1ccc(CN2CCC(NC(=O)c3ccc(C(=O)N4CCC(C(=O)c5ccc(F)cc5F)CC4)cn3)CC2)cc1 [Compound 271, N-(1-(4-cyanobenzyl)piperidin-4-yl)-5-(4-(2,4-difluorobenzoyl)piperidine-1-carbonyl)picolinamide] | < 500
16 | N#Cc1ccc(OC2CCN(C(=O)c3ccc(C(=O)N[C@H]4CC[C@@H](Oc5ccc(C(F)(F)F)cc5)CC4)nc3)CC2)cc1 [Compound 193, 5-(4-(4-cyanophenoxy)piperidine-1-carbonyl)-N-((cis)-4-(4-(trifluoromethyl)phenoxy)cyclohexyl) picolinamide] | < 500
17 | COc1ccc(CN2CCC(NC(=O)c3ccc(C(=O)N4CCC(Oc5ccc(C(=O)C6CC6)cc5)CC4)nc3)CC2)cc1 [Compound 458, 6-(4-(4-(cyclopropanecarbonyl)phenoxy)piperidine-1-carbonyl)-N-(1-(4-methoxybenzyl)piperidin-4-yl)nicotinamide] | < 500
18 | O=C(Nc1ccc(C(=O)N2CCN(Cc3ccc(F)cc3)CC2)cn1)c1ccc(-c2ccccc2)cc1 [Compound 170, N-(5-(4-(4-fluorobenzyl)piperazine-1-carbonyl)pyridin-2-yl)biphenyl-4-carboxamide] | > 10000
19 | N#Cc1ccc(CN2CCC(NC(=O)c3ccc(C(=O)N4CCN(C5CCOCC5)CC4)cn3)CC2)cc1 [Compound 83, N-(1-(4-cyanobenzyl)piperidin-4-yl)-5-(4-(tetrahydro-2H-pyran-4-yl)piperazine-1-carbonyl)picolinamide] | > 10000
20 | CC(C)N1CCN(C(=O)c2ccc(C(=O)N3CCN(CCc4ccccc4)CC3)nc2)CC1 [Compound 91, (4-isopropylpiperazin-1-yl)(6-(4-phenethylpiperazine-1-carbonyl)pyridin-3-yl)methanone] | > 10000
21 | N#Cc1ccc(CN2CCC(NC(=O)c3ccc(C(=O)N4CCC(C(=O)c5ccc(N6CCOCC6)cc5)CC4)cn3)CC2)cc1 [Compound 376, N-(1-(4-cyanobenzyl)piperidin-4-yl)-5-(4-(4-morpholinobenzoyl)piperidine-1-carbonyl)picolinamide] | < 500
22 | CC(=O)c1ccc(OC2CCN(C(=O)c3ccc(C(=O)Nc4ccc(Oc5ccc(F)cc5)nc4)cn3)CC2)cc1 [Compound 395, 6-(4-(4-acetylphenoxy)piperidine-1-carbonyl)-N-(6-(4-fluorophenoxy)pyridin-3-yl)nicotinamide] | < 500
23 | COc1ccc(C(=O)C2CCN(C(=O)c3ccc(C(=O)NC4CCC(Oc5ccc(C#N)cc5)CC4)cn3)CC2)cc1 (stereo not drawn) [Compound 315, N-((1s,4s)-4-(4-cyanophenoxy)cyclohexyl)-6-(4-(4-methoxybenzoyl)piperidine-1-carbonyl)nicotinamide] | < 500
24 | COc1cccc(CN2CCC(NC(=O)c3ccc(C(=O)N4CCC(S(=O)(=O)c5ccc(F)cc5)CC4)nc3)CC2)c1 [Compound 475, 6-(4-(4-fluorophenylsulfonyl)piperidine-1-carbonyl)-N-(1-(3-methoxybenzyl)piperidin-4-yl)nicotinamide] | 1000 to 5000
